This note sets out measurements from patent US3985738A, “7-(D-. alpha.-Hydroxy-2-arylacetamido)-3-(tetrazolo-[4,5-b]pyridazin-6-ylthiomet hyl)-3-cephem-4-carboxylic acids” (Bristol-Myers Company, priority 1974, dated 1976).

In brackets after ≈: the same amount, converted by molar mass.

Common to all, as to assay: In vitro antibacterial activity, tube dilution method (Nutrient Broth)
Holding throughout (type): cell-based

The test system of one assay is Mycobacterium 607. The source says:
(§1) In vitro Antibacterial Activity of BB-S266 by Tube Dilution Method (Nutrient Broth).

The subject of another assay is Ser. marcescens A20019. Particulars: Serratia marcescens.
Text: as §1

For another assay, the system named is Kl. pneumoniae A15130. Particulars: Klebsiella pneumoniae.
Text: as §1

The test system of the next assay is E. coli Juhl A15119. Conditions: Escherichia coli, JUHLA15119.
Text: as §1

The test system of another assay is St. pyogenes A9604. Conditions: Streptococcus pyogenes.
Text: as §1

Another assay has as its system S. aureus Russel. Particulars: Staphylococcus aureus.
Text: as §1

The subject of another assay is E. coli NIHJ. Particulars: Escherichia coli.
Text: as §1

The next assay has as its system Pr. morganii A15153. Conditions: Morganella morganii.
Text: as §1

For the next assay, the system named is S. aureus Smith. Particulars: Staphylococcus aureus.
Text: as §1

The test system of another assay is Pr. mirabilis A9900. Particulars: Proteus mirabilis.
Text: as §1

The subject of the next assay is Dip. pneumoniae. Particulars: Streptococcus pneumoniae.
Text: as §1

In the next assay the test system is E. coli ATCC 8739. Conditions: Escherichia coli, ATCC8739.
Text: as §1

A further assay has as its system S. aureus BX-1633. Conditions: Staphylococcus aureus, BX1633.
Text: as §1

The next assay deals with Sal. enteritidis A9531. Particulars: Salmonella enterica.
Text: as §1

A further assay relates to Kl. pneumoniae A9977. Conditions: Klebsiella pneumoniae.
Text: as §1

Another assay concerns Ps. aeruginosa A9843. Particulars: Pseudomonas aeruginosa.
Text: as §1

For orientation: MIC means the lowest concentration found to suppress growth. `O=C(O)C1=C(CSc2ccc3nnnn3n2)CS[C@@H]2C(NC(=O)[C@H](O)c3ccccc3)C(=O)N12` (stereo partly drawn) [BB-S266, 7-(D-α-HYDROXY-α-PHENYLACETAMIDO)-3-(TETRAZOLO[4,5-B]PYRIDAZIN-6-YLTHIOMETHYL)-3-CEPHEM-4-CARBOXYLIC ACID]: the MIC against Mycobacterium 607 is under 100 µg/mL; with Ser. marcescens A20019, 100 µg/mL (≈ 200 µM); with Kl. pneumoniae A15130 it was 3.1 µg/mL (≈ 6.21 µM); against E. coli Juhl A15119, 3.1 µg/mL (≈ 6.21 µM); in the assay with St. pyogenes A9604 it was 0.01 µg/mL (≈ 0.02 µM); with S. aureus Russel, 0.4 µg/mL (≈ 0.801 µM). The MIC came to 0.08 µg/mL (≈ 0.16 µM) against E. coli NIHJ; 50 µg/mL (≈ 100 µM) against Pr. morganii A15153; 0.1 µg/mL (≈ 0.2 µM) against S. aureus Smith (S. aureus Smith); 0.2 µg/mL with S. aureus Smith (S. aureus Smith + 50% serum); 6.3 µg/mL (≈ 12.6 µM) against Pr. mirabilis A9900; 0.01 µg/mL (≈ 0.02 µM) against Dip. pneumoniae. Besides, the MIC was 1.6 µg/mL (≈ 3.2 µM) with E. coli ATCC 8739; 0.8 µg/mL (≈ 1.6 µM) in the assay with S. aureus BX-1633; 0.4 µg/mL (≈ 0.801 µM) against Sal. enteritidis A9531; 3.1 µg/mL (≈ 6.21 µM) in the assay with Kl. pneumoniae A9977; under 100 µg/mL against Ps. aeruginosa A9843.
